In the NIST ThermoML archive (doi:10.1016/j.fluid.2009.10.009) one finds Normal melting temperature data, which are given here for two molecules.

For the series the following is noted: Crystal.

Numbers after ± are expanded uncertainties.

Turning to `CCCCCCCCCCO` [decan-1-ol], the Normal melting temperature (Visual) was determined as 7.00 °C.
Take `CC(C)CCC[C@@H](C)[C@H]1CC[C@H]2[C@@H]3CC=C4C[C@@H](O)CC[C@]4(C)[C@H]3CC[C@]12C` [.DELTA.5-cholesten-3β-ol]: the Normal melting temperature (visual observation) stood at 148.00 ± 0.39 °C.
